Measured values as given in US20240360081A1, “SULFONAMIDE OREXIN RECEPTOR AGONISTS AND USES THEREOF” (Jazz Pharmaceuticals Ireland Limited, priority 2021, published 2024).

Target: T1, human recombinant OX2 (hOX2) receptor expressed in CHO cells (Homo sapiens, UniProt O43614)
T1 construct: host or cells: CHO cells (hOX2-CHO)
T1 sequence (O43614 1-444): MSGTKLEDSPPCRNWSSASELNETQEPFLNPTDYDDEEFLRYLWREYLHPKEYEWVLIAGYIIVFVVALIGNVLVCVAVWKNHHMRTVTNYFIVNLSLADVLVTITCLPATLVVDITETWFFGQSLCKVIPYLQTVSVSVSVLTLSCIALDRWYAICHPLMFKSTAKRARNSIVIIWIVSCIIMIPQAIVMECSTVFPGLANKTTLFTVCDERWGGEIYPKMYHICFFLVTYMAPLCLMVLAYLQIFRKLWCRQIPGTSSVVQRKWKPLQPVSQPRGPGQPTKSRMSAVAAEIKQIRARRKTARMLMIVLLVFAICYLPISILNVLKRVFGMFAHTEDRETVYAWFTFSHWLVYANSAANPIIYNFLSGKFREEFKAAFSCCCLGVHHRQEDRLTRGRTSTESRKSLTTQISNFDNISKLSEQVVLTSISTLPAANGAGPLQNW
Assay: IP-1 accumulation assay (IP-One HTRF) in hOX2-CHO cells
Assay type: cell-based
Conditions: 60 min at 37° C., 11 points CRC, response as % of maximal OX-A response
Procedure, shortened: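 CHO cells expressing hOX2, 20,000 cells/well in HBSS with 20 mM HEPES pH 7.4, 50 mM LiCl, 0.1% BSA; 11-point compound series, 0.5% DMSO final, 60 min at 37 °C. IP-1 by HTRF (665/615 ratio) after 60 min at room temperature, as % of maximal OX-A response; EC50 by four-parameter logistic fit, mean of ≥2 experiments in duplicate.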

| Structure (SMILES) | EC50 [µM] |
| --- | --- |
| Cc1cc(C(CNS(=O)(=O)N(C)C)CO[C@H]2CC[C@@H](c3cccc(F)c3)CC2)c(=O)n(C(F)F)c1 (stereo partly drawn) [Example 5aa, 1-(difluoromethyl)-3-{1-[(dimethylsulfamoyl)amino]-3-{[(CIS)-4-(3-fluorophenyl)cyclohexyl]oxy}propan-2-yl}-5-methyl-1,2-dihydropyridin-2-one] | < 0.1 |
| COc1ccn(C)c(=O)c1C(CNS(C)(=O)=O)CO[C@H]1CC[C@@H](c2ccccc2)CC1 (stereo partly drawn) [Example 5b, N-[2-(4-methoxy-1-methyl-2-oxo-1,2-dihydropyridin-3-yl)-3-{[(CIS)-4-phenylcyclohexyl]oxy}propyl]methanesulfonamide] | 1 to 10 |
| Cc1cc(C(CNS(C)(=O)=O)CO[C@H]2CC[C@@H](c3cccc(F)c3)CC2)c(=O)n(CC#N)c1 (stereo partly drawn) [Example 5e, N-{2-[1-(cyanomethyl)-5-methyl-2-oxo-1,2-dihydropyridin-3-yl]-3-{[(CIS)-4-(3-fluorophenyl)cyclohexyl]oxy}propyl}methanesulfonamide] | 0.1 to 1 |
| CS(=O)(=O)NCC(CO[C@H]1CC[C@@H](c2ccccc2)CC1)c1cccn2cnnc12 (stereo partly drawn) [Example 5f, N-(3-{[(CIS)-4-phenylcyclohexyl]oxy}-2-{[1,2,4]triazolo[4,3-a]pyridin-8-yl}propyl)methanesulfonamide] | 0.1 to 1 |
| Cc1cc(C(CNS(=O)(=O)N(C)C)CO[C@H]2CC[C@@H](c3ccccc3)CC2)n2nccc2c1 (stereo partly drawn) [Example 5g, dimethyl[(2-{5-methylpyrazolo[1,5-a]pyridin-7-yl}-3-{[(CIS)-4-phenylcyclohexyl]oxy}propyl)sulfamoyl]amine] | 0.1 to 1 |
| CN(C)S(=O)(=O)NCC(CO[C@H]1CC[C@@H](c2cccc(F)c2)CC1)c1cccc2c1nnn2C (stereo partly drawn) [Example 5h, dimethyl({[2-(1-methyl-1H-1,2,3-benzotriazol-4-yl)-3-{[(CIS)-4-(3-fluorophenyl)cyclohexyl]oxy}propyl]sulfamoyl})amine] | 1 to 10 |
| Cc1cc(C)nc(C(CNS(C)(=O)=O)CO[C@H]2CC[C@@H](c3ccccc3)CC2)c1 (stereo partly drawn) [Example 5i, N-[2-(4,6-dimethylpyridin-2-yl)-3-{[(CIS)-4-phenylcyclohexyl]oxy}propyl]methanesulfonamide] | 1 to 10 |
| Cc1cc(C)[n+]([O-])c(C(CNS(C)(=O)=O)CO[C@H]2CC[C@@H](c3ccccc3)CC2)c1 (stereo partly drawn) [Example 5j, 2-(1-methanesulfonamido-3-{[(CIS)-4-phenylcyclohexyl]oxy}propan-2-yl)-4,6-dimethylpyridin-1-ium-1-olate] | < 0.1 |
| Cc1cc(C(CNS(=O)(=O)CF)CO[C@H]2CC[C@@H](c3cccc(F)c3)CC2)c(=O)n(C)c1 (stereo partly drawn) [Example 5m, N-[2-(1,5-dimethyl-2-oxo-1,2-dihydropyridin-3-yl)-3-{[(CIS)-4-(3-fluorophenyl)cyclohexyl]oxy}propyl]-1-fluoromethanesulfonamide] | < 0.1 |
| Cc1cc(C(CNS(C)(=O)=O)COC2CCN(c3ncc(F)cn3)CC2)c(=O)n(C)c1 (stereo not drawn) [Example 5p, N-[2-(1,5-dimethyl-2-oxo-1,2-dihydropyridin-3-yl)-3-{[1-(5-fluoropyrimidin-2-yl)piperidin-4-yl]oxy}propyl]methanesulfonamide] | > 10 |
| Cc1cc(C(CNS(=O)(=O)N(C)C)CO[C@H]2CC[C@@H](c3cccc(F)c3)CC2)c(=O)n(C)c1 (stereo partly drawn) [Example 5q, 3-{1-[(dimethylsulfamoyl)amino]-3-{[(CIS)-4-(3-fluorophenyl)cyclohexyl]oxy}propan-2-yl}-1,5-dimethyl-1,2-dihydropyridin-2-one] | < 0.1 |
| Cc1cc(C(CNS(=O)(=O)N(C)C)CO[C@H]2CC[C@@H](c3cc(F)cc(F)c3)CC2)c(=O)n(C)c1 (stereo partly drawn) [Example 5u, 3-{1-[(dimethylsulfamoyl)amino]-3-{[(CIS)-4-(3,5-difluorophenyl)cyclohexyl]oxy}propan-2-yl}-1,5-dimethyl-1,2-dihydropyridin-2-one] | < 0.1 |
